The NIST ThermoML archive (doi:10.1016/j.jct.2016.12.032)

Assay: xn = mol fraction of the nth substance listed
Details: 100 kPa, Liquid; for viscosity: Capillary tube (Ostwald / Ubbelohde) method; for mass density: Vibrating tube method

O=C1CCCCCO1 [6-hexanolactone] + CCCC[n+]1ccn(C)c1.O=S(=O)([N-]S(=O)(=O)C(F)(F)F)C(F)(F)F
Details | mass density [kg/m3] | viscosity [mPa·s]
293.15 K, x2 = 0 | 1075.92 | 6.63
293.15 K, x2 = 0.05 | 1122.04 | 7.97
293.15 K, x2 = 0.1002 | 1161.48 | 9.67
293.15 K, x2 = 0.1505 | 1195.51 | 11.48
293.15 K, x2 = 0.1985 | 1223.86 | 13.4
293.15 K, x2 = 0.3001 | 1273.58 | 18.05
293.15 K, x2 = 0.3987 | 1311.9 | 23.25
293.15 K, x2 = 0.4903 | 1341.13 | 28.59
293.15 K, x2 = 0.6309 | 1377.36 | 37.38
293.15 K, x2 = 0.6988 | 1391.97 | 41.8
293.15 K, x2 = 0.8042 | 1411.81 | 48.8
293.15 K, x2 = 0.883 | 1424.76 | 54.08
298.15 K, x2 = 0 | 1071.67 | 5.76
298.15 K, x2 = 0.05 | 1117.68 | 6.87
298.15 K, x2 = 0.1002 | 1157.04 | 8.29
298.15 K, x2 = 0.1505 | 1191 | 9.78
298.15 K, x2 = 0.1985 | 1219.3 | 11.34
298.15 K, x2 = 0.3001 | 1268.92 | 15.14
298.15 K, x2 = 0.3987 | 1307.17 | 19.36
298.15 K, x2 = 0.4903 | 1336.35 | 23.66
298.15 K, x2 = 0.6309 | 1372.52 | 30.61
298.15 K, x2 = 0.6988 | 1387.11 | 34.05
298.15 K, x2 = 0.8042 | 1406.92 | 39.48
298.15 K, x2 = 0.883 | 1419.85 | 43.58
303.15 K, x2 = 0 | 1067.41 | 5.04
303.15 K, x2 = 0.05 | 1113.3 | 5.97
303.15 K, x2 = 0.1002 | 1152.56 | 7.18
303.15 K, x2 = 0.1505 | 1186.44 | 8.42
303.15 K, x2 = 0.1985 | 1214.67 | 9.71
303.15 K, x2 = 0.3001 | 1264.18 | 12.78
303.15 K, x2 = 0.3987 | 1302.35 | 16.15
303.15 K, x2 = 0.4903 | 1331.47 | 19.54
303.15 K, x2 = 0.6309 | 1367.57 | 25.2
303.15 K, x2 = 0.6988 | 1382.12 | 28.07
303.15 K, x2 = 0.8042 | 1401.89 | 32.58
303.15 K, x2 = 0.883 | 1414.8 | 36.02
308.15 K, x2 = 0 | 1063.15 | 4.44
308.15 K, x2 = 0.05 | 1108.94 | 5.22
308.15 K, x2 = 0.1002 | 1148.11 | 6.25
308.15 K, x2 = 0.1505 | 1181.92 | 7.26
308.15 K, x2 = 0.1985 | 1210.09 | 8.36
308.15 K, x2 = 0.3001 | 1259.51 | 10.91
308.15 K, x2 = 0.3987 | 1297.6 | 13.67
308.15 K, x2 = 0.4903 | 1326.67 | 16.42
308.15 K, x2 = 0.6309 | 1362.7 | 20.93
308.15 K, x2 = 0.6988 | 1377.23 | 23.21
308.15 K, x2 = 0.8042 | 1396.97 | 26.77
308.15 K, x2 = 0.883 | 1409.86 | 29.49
313.15 K, x2 = 0 | 1058.9 | 3.95
313.15 K, x2 = 0.05 | 1104.57 | 4.61
313.15 K, x2 = 0.1002 | 1143.65 | 5.5
313.15 K, x2 = 0.1505 | 1177.38 | 6.41
313.15 K, x2 = 0.1985 | 1205.49 | 7.35
313.15 K, x2 = 0.3001 | 1254.8 | 9.43
313.15 K, x2 = 0.3987 | 1292.82 | 11.71
313.15 K, x2 = 0.4903 | 1321.83 | 14.07
313.15 K, x2 = 0.6309 | 1357.8 | 17.79
313.15 K, x2 = 0.6988 | 1372.3 | 19.67
313.15 K, x2 = 0.8042 | 1392.01 | 22.59
313.15 K, x2 = 0.883 | 1404.86 | 24.85
318.15 K, x2 = 0 | 1054.65 | 3.53
318.15 K, x2 = 0.05 | 1100.22 | 4.07
318.15 K, x2 = 0.1002 | 1139.2 | 4.87
318.15 K, x2 = 0.1505 | 1172.86 | 5.67
318.15 K, x2 = 0.1985 | 1200.91 | 6.5
318.15 K, x2 = 0.3001 | 1250.12 | 8.31
318.15 K, x2 = 0.3987 | 1288.06 | 10.27
318.15 K, x2 = 0.4903 | 1317.02 | 12.18
318.15 K, x2 = 0.6309 | 1352.92 | 15.24
318.15 K, x2 = 0.6988 | 1367.39 | 16.82
318.15 K, x2 = 0.8042 | 1387.06 | 19.24
318.15 K, x2 = 0.883 | 1399.89 | 21.07
323.15 K, x2 = 0 | 1050.4 | 3.17
323.15 K, x2 = 0.05 | 1095.86 | 3.69
323.15 K, x2 = 0.1002 | 1134.75 | 4.36
323.15 K, x2 = 0.1505 | 1168.33 | 5.03
323.15 K, x2 = 0.1985 | 1196.32 | 5.73
323.15 K, x2 = 0.3001 | 1245.42 | 7.26
323.15 K, x2 = 0.3987 | 1283.28 | 8.9
323.15 K, x2 = 0.4903 | 1312.18 | 10.53
323.15 K, x2 = 0.6309 | 1348.01 | 13.14
323.15 K, x2 = 0.6988 | 1362.45 | 14.49
323.15 K, x2 = 0.8042 | 1382.08 | 16.64
323.15 K, x2 = 0.883 | 1394.89 | 18.26

CC1CCC(=O)O1 (stereo unspecified) [γ-valerolactone] + CCCC[n+]1ccn(C)c1.O=S(=O)([N-]S(=O)(=O)C(F)(F)F)C(F)(F)F
Details | mass density [kg/m3] | viscosity [mPa·s]
293.15 K, x2 = 0 | 1053.99 | 1.99
293.15 K, x2 = 0.0505 | 1108.43 | 2.51
293.15 K, x2 = 0.1001 | 1153.24 | 3.21
293.15 K, x2 = 0.1492 | 1191.45 | 4.28
293.15 K, x2 = 0.1998 | 1223.25 | 5.6
293.15 K, x2 = 0.3008 | 1274.04 | 8.84
293.15 K, x2 = 0.4031 | 1317.29 | 13.88
293.15 K, x2 = 0.5048 | 1347.03 | 19.18
293.15 K, x2 = 0.6031 | 1373.16 | 25.88
293.15 K, x2 = 0.6973 | 1393.96 | 33.12
293.15 K, x2 = 0.7994 | 1413.3 | 42.31
293.15 K, x2 = 0.8711 | 1426.6 | 50.45
298.15 K, x2 = 0 | 1049.28 | 1.82
298.15 K, x2 = 0.0505 | 1103.66 | 2.21
298.15 K, x2 = 0.1001 | 1148.42 | 2.76
298.15 K, x2 = 0.1492 | 1186.58 | 3.57
298.15 K, x2 = 0.1998 | 1218.36 | 4.71
298.15 K, x2 = 0.3008 | 1269.12 | 7.2
298.15 K, x2 = 0.4031 | 1312.35 | 11.11
298.15 K, x2 = 0.5048 | 1342.1 | 15.34
298.15 K, x2 = 0.6031 | 1368.22 | 20.69
298.15 K, x2 = 0.6973 | 1389.01 | 26.55
298.15 K, x2 = 0.7994 | 1408.36 | 34.16
298.15 K, x2 = 0.8711 | 1421.67 | 40.79
303.15 K, x2 = 0 | 1044.58 | 1.67
303.15 K, x2 = 0.0505 | 1098.86 | 1.98
303.15 K, x2 = 0.1001 | 1143.54 | 2.45
303.15 K, x2 = 0.1492 | 1181.67 | 3.13
303.15 K, x2 = 0.1998 | 1213.42 | 4.03
303.15 K, x2 = 0.3008 | 1264.12 | 6.01
303.15 K, x2 = 0.4031 | 1307.33 | 9.11
303.15 K, x2 = 0.5048 | 1337.07 | 12.52
303.15 K, x2 = 0.6031 | 1363.16 | 17.18
303.15 K, x2 = 0.6973 | 1383.94 | 21.62
303.15 K, x2 = 0.7994 | 1403.29 | 27.85
303.15 K, x2 = 0.8711 | 1416.59 | 33.15
308.15 K, x2 = 0 | 1039.87 | 1.53
308.15 K, x2 = 0.0505 | 1094.09 | 1.81
308.15 K, x2 = 0.1001 | 1138.71 | 2.22
308.15 K, x2 = 0.1492 | 1176.8 | 2.79
308.15 K, x2 = 0.1998 | 1208.52 | 3.53
308.15 K, x2 = 0.3008 | 1259.2 | 5.16
308.15 K, x2 = 0.4031 | 1302.39 | 7.78
308.15 K, x2 = 0.5048 | 1332.11 | 10.6
308.15 K, x2 = 0.6031 | 1358.2 | 14.12
308.15 K, x2 = 0.6973 | 1378.98 | 17.97
308.15 K, x2 = 0.7994 | 1398.34 | 22.82
308.15 K, x2 = 0.8711 | 1411.63 | 27.09
313.15 K, x2 = 0 | 1035.16 | 1.42
313.15 K, x2 = 0.0505 | 1089.31 | 1.65
313.15 K, x2 = 0.1001 | 1133.87 | 2
313.15 K, x2 = 0.1492 | 1171.93 | 2.45
313.15 K, x2 = 0.1998 | 1203.61 | 3.17
313.15 K, x2 = 0.3008 | 1254.26 | 4.5
313.15 K, x2 = 0.4031 | 1297.42 | 6.65
313.15 K, x2 = 0.5048 | 1327.12 | 9.02
313.15 K, x2 = 0.6031 | 1353.2 | 12.05
313.15 K, x2 = 0.6973 | 1373.98 | 15.14
313.15 K, x2 = 0.7994 | 1393.33 | 19.14
313.15 K, x2 = 0.8711 | 1406.62 | 22.7
318.15 K, x2 = 0 | 1030.45 | 1.32
318.15 K, x2 = 0.0505 | 1084.53 | 1.52
318.15 K, x2 = 0.1001 | 1129.05 | 1.79
318.15 K, x2 = 0.1492 | 1167.06 | 2.22
318.15 K, x2 = 0.1998 | 1198.73 | 2.8
318.15 K, x2 = 0.3008 | 1249.35 | 4.03
318.15 K, x2 = 0.4031 | 1292.49 | 5.76
318.15 K, x2 = 0.5048 | 1322.17 | 7.84
318.15 K, x2 = 0.6031 | 1348.24 | 10.41
318.15 K, x2 = 0.6973 | 1369.02 | 12.96
318.15 K, x2 = 0.7994 | 1388.35 | 16.42
318.15 K, x2 = 0.8711 | 1401.62 | 19.25
323.15 K, x2 = 0 | 1025.74 | 1.23
323.15 K, x2 = 0.0505 | 1079.76 | 1.41
323.15 K, x2 = 0.1001 | 1124.22 | 1.66
323.15 K, x2 = 0.1492 | 1162.18 | 2.04
323.15 K, x2 = 0.1998 | 1193.83 | 2.49
323.15 K, x2 = 0.3008 | 1244.4 | 3.59
323.15 K, x2 = 0.4031 | 1287.51 | 5.19
323.15 K, x2 = 0.5048 | 1317.18 | 6.98
323.15 K, x2 = 0.6031 | 1343.25 | 9.22
323.15 K, x2 = 0.6973 | 1364.02 | 11.45
323.15 K, x2 = 0.7994 | 1383.35 | 14.32
323.15 K, x2 = 0.8711 | 1396.6 | 16.68
